Data taken from ChEMBL document CHEMBL1155112, “Alkaloids from the leaves of Uncaria rhynchophylla and their inhibitory activity on NO production in lipopolysaccharide-activated microglia” (J Nat Prod, 2008).
Calls of active or inactive are those of the source. No cut-off for these calls is given here.

Key:
Microglia [1] = assay: Cell viability of LPS-stimulated rat cortical microglial cells after 48 hrs by MTT assay; format: functional, cell-based
[2] = Inhibition of LPS-stimulated NO release in rat cortical microglial cells assessed as nitrite accumulation at 1 ug/ml after 48 hrs relative to LPS; format: functional; conditions: Microglia, values are per cent of control
[3] = Inhibition of LPS-stimulated NO release in rat cortical microglial cells assessed as nitrite accumulation at 100 ug/ml after 48 hrs relative to LPS; format: functional; conditions: Microglia, values are per cent of control
[4] = Inhibition of LPS-stimulated NO release in rat cortical microglial cells assessed as nitrite accumulation at 10 ug/ml after 48 hrs relative to LPS; format: functional; conditions: Microglia, values are per cent of control
Microglia [5] = assay: Cell viability of rat cortical microglial cells after 48 hrs by MTT assay; format: functional, cell-based
[6] = Inhibition of LPS-stimulated NO release in rat cortical microglial cells assessed as nitrite accumulation after 48 hrs; format: functional; conditions: Microglia
[7] = Inhibition of LPS-stimulated NO release in rat cortical microglial cells assessed as nitrite accumulation at 3 uM after 48 hrs relative to LPS; format: functional; conditions: Microglia, values are per cent of control
[8] = Inhibition of NO release in LPS-stimulated rat cortical microglial cells assessed as nitrite accumulation at 30 uM after 48 hrs relative to LPS; format: functional; conditions: Microglia, values are per cent of control

| Compound | Activity (Microglia [1]) | response, % of control at 1 µg/mL [2] [%] | response, % of control at 100 µg/mL [3] [%] | response, % of control at 10 µg/mL [4] [%] | Activity (Microglia [5]) | IC50 [6] [µM] | response, % of control at 3 µM [7] [%] | response, % of control at 30 µM [8] [%] |
| --- | --- | --- | --- | --- | --- | --- | --- | --- |
| C=C[C@@H]1CN2CC[C@@]3(C(=O)Nc4ccccc43)[C@@H]2C[C@@H]1/C(=C\OC)C(=O)O | inactive | 98.8 | 92.7 | 107 | inactive | > 100 | – | – |
| C=C[C@@H]1CN2CC[C@]3(C(=O)Nc4ccccc43)[C@@H]2C[C@@H]1/C(=C\OC)C(=O)O [18,19-DEHYDROCORYNOXINIC ACID B] | inactive | 81.9 | 88.9 | 84.2 | inactive | > 100 | – | – |
| C=C[C@H]1CN2CC[C@]3(C(=O)Nc4ccccc43)[C@@H]2C[C@@H]1/C(=C\OC)C(=O)OC [CORYNOXEINE] | inactive | 86.9 | 37.9 | 74.5 | inactive | 15.7 | – | – |
| C=C[C@H]1CN2CC[C@@]3(C(=O)Nc4ccccc43)[C@@H]2C[C@@H]1/C(=C\OC)C(=O)OC [ISOCORYNOXEINE] | inactive | 92.2 | 40.5 | 73.2 | inactive | 13.7 | – | – |
| CC[C@H]1CN2CC[C@@]3(C(=O)Nc4ccccc43)[C@@H]2C[C@@H]1/C(=C\OC)C(=O)OC [ISORHYNCHOPHYLLINE] | inactive | 95.2 | 42.1 | 76.9 | inactive | 19 | – | – |
| Oc1ccc(/C=C/c2cc(O)cc(O)c2)cc1 [RESVERATROL] | – | – | – | 72.4 | – | 11.5 | 92 | 43.4 |
| CC[C@H]1CN2CC[C@]3(C(=O)Nc4ccccc43)[C@@H]2C[C@@H]1/C(=C\OC)C(=O)OC [RHYNCHOPHYLLINE] | inactive | 106 | 35.9 | 75.8 | inactive | 18.5 | – | – |
| C=C[C@H]1C(O[C@@H]2O[C@H](CO)[C@@H](O)[C@H](O)[C@H]2O)OC=C2C(=O)N3CCc4c([nH]c5ccccc45)[C@@H]3C[C@H]21 (stereo partly specified) [VINCOSIDE LACTAM] | inactive | 71.8 | 38.6 | 65.7 | inactive | 16.4 | – | – |
